Source: patent publication US8198273B2, “Compounds and methods for kinase modulation, and indications therefor” (Plexxikon Inc., priority 2009, dated 2012)
pIC50: −log10 of the molar value.

Key:
[1] = system: SKMEL3 melanoma cells (B-Raf V600E); assay: SKMEL3 cell growth inhibition (ATPlite); type: cell-based; conditions: Homo sapiens, SK-MEL3, 72 h; SKMEL3, 3 days incubation
Method: (§1) Compounds are assessed in a variety of cell based assays. For example human cell lines with B-Raf V600E mutation (A375 melanoma, SKMEL3 melanoma, and COL0205 colon adenocarcinoma), as well as tumorigenic cell lines with wild-type B-RAF (SW620 colon adenocarcinoma) or with Ras mutations (SKMEL2 melanoma and IPC298 melanoma). Similar assays may be used to assess additional tumorigenic cell lines with Ras mutations, including, but not limited to, M202, M207, M243, M244, M296, S117, HCT116, HCT15, DLD1, MiaPaCa, A549, NCI-H23, NCI-H460, HOP62, MDA-MB231, Hs-578T, HL60, MOLT-4, and CCRF-CEM.
(§2) On day 1, cells are counted, then centrifuged in a conical tube for 5 minutes at 1000 rpm. The supernatant is removed and cells are re-suspended as follows: • SW620 (ATCC catalog #CCL-27): resuspend in Leibovitz's L-15 medium, 2 mM L-glutamine, 10% fetal bovine serum to 6×10^4 cells/mL. • A375 (ATCC catalog #CRL-1619): resuspend in Dulbecco's modified Eagle's medium, 4 mM L-glutamine, 4.5 g/L D-glucose, 10% fetal bovine serum to 6×10^4 cells/mL. • COL0205 (ATCC catalog #CCL-222): resuspend in RPMI 1640, 2 mM L-glutamine, 1.5 g/L sodium bicarbonate, 4.5 g/L D-glucose, 10 mM HEPES, 1.0 mM sodium pyruvate, 10% fetal bovine serum to 6×10^4 cells/mL. • SKMEL2 (ATCC catalog #HTB-68): resuspend in Minimum Eagle essential medium, 2 mM L-glutamine, 1.5 g/L sodium bicarbonate, 0.1 mM non-essential amino acids, 1.0 mM sodium pyruvate, 10% fetal bovine serum to 6×10^4 cells/mL. • SKMEL3 (ATCC catalog #HTB-69): resuspend in McCoy's 5A medium, 1.5 mM L-glutamine, 15% fetal bovine serum to 6×10^4 cells/mL. • IPC298 (DSMZ catalog #ACC 251): resuspend in RPMI 1640, 2 mM L-glutamine, 10% fetal bovine serum to 6×10^4 cells/mL.
(§3) The cells are plated, 50 μL in each well of a 96-well dish (Corning 3610) and incubated at 37° C. in 5% CO2 overnight, cells plated to a final concentration of cells as follows:
SKMEL3: 3,000 cells per well.
On day 2, compound at a maximum concentration of 5 mM is serially diluted 1:3 for a total of 8 point titration with DMSO as a control. A 1 μL aliquot of each dilution point and control is added to 249 μL growth media and 50 μL is added to a well containing cells, providing 10 μM compound at the maximum concentration point. The cells are incubated for 3 days at 37° C. in 5% CO2.
(§4) On day 5, ATPlite 1 step Luminescence Assay System (Perkin Elmer #6016739) is brought to room temperature along with the cell cultures. ATPlite is added 25 μL to each well, shake for 2 minutes, and the cells are incubated at room temperature for 10 minutes, then luminescence is read on Safire reader. The measured luminescence correlates directly with cell number, such that the reading as a function of compound concentration is used to determine the IC50 value.
It is understood that the results of these assays may vary as assay conditions are varied. Inhibition levels determined under the conditions described herein represent a relative activity for the compounds tested under the specific conditions employed. The cell based assays are likely to show variability due to the complexity of the system and the sensitivity thereof to any changes in the assay conditions. […] Results for compounds that are tested and show substantially no inhibition below the highest tested concentration are represented as “-” in the tables below. In some instances, the compounds were not tested in all of the assays, or assay results were not valid, as indicated by NA in the tables below.

[2] = system: IPC298 melanoma cells (Ras mutation); assay: IPC298 cell growth inhibition (ATPlite); type: cell-based; conditions: Homo sapiens, IPC-298, 72 h; IPC298, 3 days incubation
Method: as §1, §2, §3
On day 2, compound at a maximum concentration of 5 mM is serially diluted 1:3 for a total of 8 point titration with DMSO as a control. […]
as §4
It is understood that the results of these assays may vary as assay conditions are varied. Inhibition levels determined under the conditions described herein represent a relative activity for the compounds tested under the specific conditions employed. […]

Row | Compound | pIC50 [1] | pIC50 [2]
1 | CCCS(=O)(=O)Nc1ccc(F)c(C(=O)c2c[nH]c3ncc(-c4cnc(N5CCCC5)nc4)cc23)c1F [P-2219, Propane-1-sulfonic acid {2,4-difluoro-3-[5-(2-pyrrolidin-1-yl-pyrimidin-5-yl)-1H-pyrrolo[2,3-b]pyridine-3-carbonyl]-phenyl}-amide] | > 5.30 | –
2 | CCCS(=O)(=O)Nc1ccc(F)c(C(=O)c2c[nH]c3ncc(-c4cnc(N(C)C)nc4)cc23)c1F [P-2196, Propane-1-sulfonic acid {3-[5-(2-dimethylamino-pyrimidin-5-yl)-1H-pyrrolo[2,3-b]pyridine-3-carbonyl]-2,4-difluoro-phenyl}-amide] | > 6.00 | > 5.00
3 | COc1ncc(-c2cnc3[nH]cc(C(=O)c4c(F)ccc(NS(=O)(=O)c5ccccc5F)c4F)c3c2)cn1 [P-2041, N-{2,4-Difluoro-3-[5-(2-methoxy-pyrimidin-5-yl)-1H-pyrrolo[2,3-b]pyridine-3-carbonyl]-phenyl}-2-fluoro-benzenesulfonamide] | > 6.00 | > 6.00
4 | CCCS(=O)(=O)Nc1ccc(F)c(C(=O)c2c[nH]c3ncc(-c4cnc(SC)nc4)cc23)c1F [P-2189, Propane-1-sulfonic acid {2,4-difluoro-3-[5-(2-methylsulfanyl-pyrimidin-5-yl)-1H-pyrrolo[2,3-b]pyridine-3-carbonyl]-phenyl}-amide] | – | > 5.00
5 | COc1ncc(-c2cnc3[nH]cc(C(=O)c4c(F)ccc(NS(=O)(=O)c5cc(F)ccc5F)c4F)c3c2)cn1 [P-2042, N-{2,4-Difluoro-3-[5-(2-methoxy-pyrimidin-5-yl)-1H-pyrrolo[2,3-b]pyridine-3-carbonyl]-phenyl}-2,5-difluoro-benzenesulfonamide] | > 6.00 | > 6.00
6 | COc1ncc(-c2cnc3[nH]cc(C(=O)c4c(F)ccc(NS(=O)(=O)c5cccc(F)c5)c4F)c3c2)cn1 [P-2045, N-{2,4-Difluoro-3-[5-(2-methoxy-pyrimidin-5-yl)-1H-pyrrolo[2,3-b]pyridine-3-carbonyl]-phenyl}-3-fluoro-benzenesulfonamide] | > 5.30 | –
